# Values quoted from earlier work, collected in patent US20230399457A1, “Bioactive Synthetic Copolymer, Bioactive Macromolecule and Related Methods Thereof” (Agency for Science, Technology and Research, priority 2020, published 2023).
# Tested on: rats
sequence,measurement,value
"AGQWHRVSVRWGC [A5G81, laminin-derived peptide]",wound healing,facilitate wound healing in rats
